Measurements from US11053204B2, “Pyrimidinyloxy benzene derivatives as herbicides” (FMC Corporation, priority 2015, dated 2021).

Experiments:
Format in all cases: in vivo
[1] = test system: galium (catchweed bedstraw, Galium aparine); test: Test C preemergence, plant response rating
[2] = test system: johnsongrass (Sorghum halepense); test: Test C preemergence, plant response rating
[3] = test system: barnyardgrass (Echinochloa crus-galli); test: Test C preemergence, plant response rating; details: Preemergence
[4] = test system: pigweed, palmer (palmer pigweed, Amaranthus palmeri); test: Test C preemergence, plant response rating
[5] = test system: kochia (Kochia scoparia); test: Test C preemergence, plant response rating
[6] = test system: windgrass (Apera spica-venti); test: Test C preemergence, plant response rating
[7] = test system: Canada thistle (Cirsium arvense); test: Test C postemergence, plant response rating; details: for Canada Thistle plant response rating: scale 0 to 100 (0 no effect, 100 complete control)
In short: (§1)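 Visual injury score, 0 = no effect, 100 = complete control, assigned against untreated controls after 13 to 15 d in the greenhouse. Compounds were applied in a surfactant-containing non-phytotoxic solvent mix, preemergence to seeded loam/sand or silt loam soil, or postemergence to 1- to 4-leaf plants (2 to 18 cm).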

[8] = test system: buckwheat, wild (wild buckwheat, Polygonum convolvulus); test: Test C postemergence, plant response rating; details: for Buckwheat, Wild plant response rating: scale 0 to 100 (0 no effect, 100 complete control)
In short: as §1

[9] = test system: field poppy (Papaver rhoeas); test: Test C postemergence, plant response rating; details: for Field Poppy plant response rating: scale 0 to 100 (0 no effect, 100 complete control)
In short: as §1

[10] = test system: field violet (Viola arvensis); test: Test C postemergence, plant response rating; details: for Field Violet plant response rating: scale 0 to 100 (0 no effect, 100 complete control)
In short: as §1

[11] = test system: geranium, cutleaf (cutleaf geranium, Geranium dissectum); test: Test C postemergence, plant response rating; details: for Geranium, Cutleaf plant response rating: scale 0 to 100 (0 no effect, 100 complete control)
In short: as §1

[12] = test system: johnsongrass (Sorghum halepense); test: Test C postemergence, plant response rating; details: for Johnsongrass plant response rating: scale 0 to 100 (0 no effect, 100 complete control)
In short: as §1

[13] = test system: nightshade (eastern black nightshade, Solanum ptycanthum); test: Test C postemergence, plant response rating; details: for Nightshade plant response rating: scale 0 to 100 (0 no effect, 100 complete control)
In short: as §1

[14] = test system: pigweed, palmer (palmer pigweed, Amaranthus palmeri); test: Test C postemergence, plant response rating; details: for Pigweed, Palmer plant response rating: scale 0 to 100 (0 no effect, 100 complete control)
In short: as §1

[15] = test system: speedwell (bird's-eye speedwell, Veronica persica); test: Test C postemergence, plant response rating; details: for Speedwell plant response rating: scale 0 to 100 (0 no effect, 100 complete control)
In short: as §1

[16] = test system: surinam grass (Brachiaria decumbens); test: Test C postemergence, plant response rating
In short: as §1

[17] = test system: wild mustard (Sinapis arvensis); test: Test C postemergence, plant response rating; details: for Mustard, Wild plant response rating: scale 0 to 100 (0 no effect, 100 complete control)
In short: as §1

[18] = test system: wild poinsettia (Euphorbia heterophylla); test: Test C postemergence, plant response rating; details: for Poinsettia, Wild plant response rating: scale 0 to 100 (0 no effect, 100 complete control)
In short: as §1

[19] = test system: windgrass (Apera spica-venti); test: Test C postemergence, plant response rating
In short: as §1

[20] = 125 g ai/ha, scale 0 to 100 (0 no effect, 100 complete control)

Compound: N#Cc1cccc(Oc2ncc(Cl)cn2)c1COCCC(F)(F)F [Compound 80]
- Plant response rating, Galium ([1]; 31 g ai/ha, scale 0 to 100): 5
- Plant response rating, Galium ([1]; 62 g ai/ha, scale of 0 to 100): 75
- Plant response rating, Galium ([1]; 125 g ai/ha, scale of 0 to 100): 98
- Plant response rating, Johnsongrass ([2]; 31 g ai/ha, scale 0 to 100): 30
- Plant response rating, Johnsongrass ([2]; 62 g ai/ha, scale 0 to 100): 55
- Plant response rating, Johnsongrass ([2]; 125 g ai/ha, scale of 0 to 100): 60
- Plant response rating, Barnyardgrass ([3]; 62 g ai/ha, scale of 0 to 100): 70
- Plant response rating, Barnyardgrass ([3]; 125 g ai/ha, scale of 0 to 100): 100
- Plant response rating, Barnyardgrass ([3]; 16 g ai/ha, scale 0 to 100): 10
- Plant response rating, Barnyardgrass ([3]; 31 g ai/ha, scale 0 to 100): 30
- Plant response rating, Pigweed, Palmer ([4]; 31 g ai/ha, scale 0 to 100): 85
- Plant response rating, Pigweed, Palmer ([4]; 62 g ai/ha, scale 0 to 100): 100
- Plant response rating, Pigweed, Palmer ([4]; 125 g ai/ha, scale of 0 to 100): 98
- Plant response rating, Kochia ([5]; 31 g ai/ha, scale 0 to 100): 95
- Plant response rating, Kochia ([5]; 62 g ai/ha, scale 0 to 100): 100
- Plant response rating, Kochia ([5]; 125 g ai/ha, scale of 0 to 100): 100
- Plant response rating, Windgrass ([6]; 31 g ai/ha, scale 0 to 100): 60
- Plant response rating, Windgrass ([6]; 62 g ai/ha, scale 0 to 100): 100
- Plant response rating, Windgrass ([6]; 125 g ai/ha, scale of 0 to 100): 100
- Plant response rating, Canada Thistle ([7]; 16 g ai/ha, scale of 0 to 100): 75
- Plant response rating, Canada Thistle ([7]; 31 g ai/ha, scale 0 to 100): 75
- Canada Thistle plant response rating ([7]; 62 g ai/ha): 75
- Canada Thistle plant response rating ([7]; 125 g ai/ha): 85
- Plant response rating, Buckwheat, Wild ([8]; 16 g ai/ha, scale of 0 to 100): 70
- Plant response rating, Buckwheat, Wild ([8]; 31 g ai/ha, scale 0 to 100): 70
- Buckwheat, Wild plant response rating ([8]; 62 g ai/ha): 75
- Buckwheat, Wild plant response rating ([8]; 125 g ai/ha): 95
- Plant response rating, Field Poppy ([9]; 16 g ai/ha, scale of 0 to 100): 70
- Plant response rating, Field Poppy ([9]; 31 g ai/ha, scale 0 to 100): 75
- Field Poppy plant response rating ([9]; 62 g ai/ha): 85
- Field Poppy plant response rating ([9]; 125 g ai/ha): 85
- Plant response rating, Field Violet ([10]; 16 g ai/ha, scale of 0 to 100): 75
- Plant response rating, Field Violet ([10]; 31 g ai/ha, scale 0 to 100): 85
- Field Violet plant response rating ([10]; 62 g ai/ha): 90
- Field Violet plant response rating ([10]; 125 g ai/ha): 95
- Plant response rating, Geranium, Cutleaf ([11]; 16 g ai/ha, scale of 0 to 100): 30
- Plant response rating, Geranium, Cutleaf ([11]; 31 g ai/ha, scale 0 to 100): 35
- Geranium, Cutleaf plant response rating ([11]; 62 g ai/ha): 35
- Geranium, Cutleaf plant response rating ([11]; 125 g ai/ha): 60
- Plant response rating, Johnsongrass ([12]; 16 g ai/ha, scale of 0 to 100): 5
- Plant response rating, Johnsongrass ([12]; 31 g ai/ha, scale 0 to 100): 5
- Johnsongrass plant response rating ([12]; 62 g ai/ha): 5
- Johnsongrass plant response rating ([12]; 125 g ai/ha): 5
- Plant response rating, Nightshade ([13]; 16 g ai/ha, scale of 0 to 100): 60
- Plant response rating, Nightshade ([13]; 31 g ai/ha, scale 0 to 100): 65
- Nightshade plant response rating ([13]; 62 g ai/ha): 70
- Nightshade plant response rating ([13]; 125 g ai/ha): 75
- Plant response rating, Pigweed, Palmer ([14]; 16 g ai/ha, scale of 0 to 100): 30
- Plant response rating, Pigweed, Palmer ([14]; 31 g ai/ha, scale 0 to 100): 35
- Pigweed, Palmer plant response rating ([14]; 62 g ai/ha): 70
- Pigweed, Palmer plant response rating ([14]; 125 g ai/ha): 60
- Plant response rating, Speedwell ([15]; 16 g ai/ha, scale of 0 to 100): 90
- Plant response rating, Speedwell ([15]; 31 g ai/ha, scale 0 to 100): 100
- Speedwell plant response rating ([15]; 62 g ai/ha): 100
- Speedwell plant response rating ([15]; 125 g ai/ha): 100
- Plant response rating, Surinam Grass ([16]; 16 g ai/ha, scale of 0 to 100): 10
- Plant response rating, Surinam Grass ([16]; 31 g ai/ha, scale 0 to 100): 10
- Surinam Grass plant response rating [16, 20]: 25
- Plant response rating, Mustard, Wild ([17]; 16 g ai/ha, scale of 0 to 100): 75
- Plant response rating, Mustard, Wild ([17]; 31 g ai/ha, scale 0 to 100): 80
- Mustard, Wild plant response rating ([17]; 62 g ai/ha): 80
- Mustard, Wild plant response rating ([17]; 125 g ai/ha): 90
- Plant response rating, Poinsettia, Wild ([18]; 16 g ai/ha, scale of 0 to 100): 65
- Plant response rating, Poinsettia, Wild ([18]; 31 g ai/ha, scale 0 to 100): 65
- Poinsettia, Wild plant response rating ([18]; 62 g ai/ha): 70
- Poinsettia, Wild plant response rating ([18]; 125 g ai/ha): 75
- Plant response rating, Windgrass ([19]; 16 g ai/ha, scale of 0 to 100): 0
- Plant response rating, Windgrass ([19]; 31 g ai/ha, scale 0 to 100): 5
- Windgrass plant response rating [19, 20]: 30
